Results reported in PMC12396409, “Screening and hit evaluation of a microbial metabolite library against the pathogenic Plasmodium falciparum and Toxoplasma gondii parasites” (International Journal for Parasitology: Drugs and Drug …, 2025).
Like-named read-outs stand apart in the source and are kept apart here.

Assays:
P. falciparum = conditions: cited from earlier work
[1] = test system: P. falciparum 3D7 parasites; test: P. falciparum growth inhibition assay, 1-cycle (72 h treatment), SYBR DNA staining (library screen at 2 μg/mL and dose-response); assay type: cell-based, Plasmodium falciparum; conditions: for activity at 2 µg/mL: Plasmodium falciparum, % growth
[2] = test system: P. falciparum 3D7 parasites; test: P. falciparum growth inhibition assay, 2-cycle (120 h treatment), delayed-death screen and dose-response; assay type: cell-based, Plasmodium falciparum; conditions: 120 h; for activity at 2 µg/mL: Plasmodium falciparum, % growth
[3] = test system: T. gondii RH strain (RH-Tub-eYFP) tachyzoites; test: microbe, parasite or virus in culture; assay type: cell-based, Toxoplasma gondii; conditions: 72 h; for percent parasite growth at 2 µg/mL: Toxoplasma gondii, % growth
[4] = 48–72 h, ref Wilson et al., 2013, read-out: IC50 at 48–72 h
[5] = 3D7, library screen at 2 μg/mL, 72 h, replicate 1, read-out: Pf_72h_%Growth_Rep1
[6] = 3D7, library screen at 2 μg/mL, 72 h, replicate 2, read-out: Pf_72h_%Growth_Rep2
[7] = 3D7, library screen at 2 μg/mL, replicate 1, read-out: Pf_120h_%Growth_Rep1
[8] = 3D7, library screen at 2 μg/mL, replicate 2, read-out: Pf_120h_%Growth_Rep2
[9] = library screen at 2 μg/mL, replicate 1, read-out: Tg_72h_%Growth_Rep1
[10] = library screen at 2 μg/mL, replicate 2, read-out: Tg_72h_%Growth_Rep2

spiramycin
IC50 (P. falciparum; [4]): ≥ 5000 nM | IC50 at more than 96 h (P. falciparum; ref Wilson et al., 2013): low nanomolar range

CCC[C@@H]1C[C@@H](C(=O)N[C@@H]([C@H]2O[C@H](SC)[C@H](O)[C@@H](O)[C@H]2O)[C@H](C)Cl)N(C)C1 [clindamycin]
IC50 (P. falciparum; [4]): ≥ 5000 nM | IC50 at more than 96 h (P. falciparum; ref Wilson et al., 2013): low nanomolar range

COCC(=O)N[C@@H](C(=O)N1NCCC[C@H]1C(=O)N[C@@H](Cc1ccccc1)[C@@H](O)[C@H](C)C(=O)N[C@H]1CCN(C(N)=O)C1=O)[C@H](O)C(C)C [Padanamide A]
activity in the screen against P. falciparum ([1]; 2 μg/mL, 72 h, active = ≥80 % growth inhibition): active against P. falciparum | IC50 (P. falciparum; another study, ref Cheng et al., 2015, read-out: IC50 in P. falciparum): ~200 nM

Micrococcin P1
IC50 ([1]; 3D7, 72 h treatment, mean ± S.D., n ≥ 3, read-out: IC50 (μM), P. falciparum): 0.02 ± 0.004 µM | IC50 ([1]; 72 h treatment, read-out: IC50, P. falciparum): < 0.2 µM | IC50 (P. falciparum; within 48 h, ref Rogers et al., 1998, read-out: IC50 in P. falciparum within 48 h): 35 nM

CCC(=O)[C@@H](C)[C@@H](O)[C@H](C)C[C@@H](C)[C@H]1OC(=O)C[C@@]2(O)CC=C(C)[C@H](O2)/C(C)=C/CCC[C@@H](O[C@H]2C[C@@H](O)[C@H](O)[C@@H](C)O2)/C=C/[C@H](C)C[C@H]1C [Venturicidin B]
Pf_72h_%Growth_Rep1 ([1]; P. falciparum, 72 h, screen at 2 μg/mL, replicate 1): 25.34% | Pf_72h_%Growth_Rep2 ([1]; P. falciparum, 72 h, screen at 2 μg/mL, replicate 2): 5.57% | Pf_120h_%Growth_Rep1 ([2]; P. falciparum, screen at 2 μg/mL, replicate 1): 23.65% | Pf_120h_%Growth_Rep2 ([2]; P. falciparum, screen at 2 μg/mL, replicate 2): 5.91% | Tg_72h_%Growth_Rep1 ([3]; T. gondii, screen at 2 μg/mL, replicate 1): 0.31% | Tg_72h_%Growth_Rep2 ([3]; T. gondii, screen at 2 μg/mL, replicate 2): 1.90%

C=C1CCO[C@]2([C@@H](O)[C@@](C)(O)CO)NC(=O)[C@@]1(O)NC2=O [Bicyclomycin]
activity at 2 µg/mL [1, 5]: 82.6% | activity at 2 µg/mL [1, 6]: 88% | activity at 2 µg/mL [2, 7]: 102% | activity at 2 µg/mL [2, 8]: 86.7% | percent parasite growth at 2 µg/mL [3, 9]: 126% | percent parasite growth at 2 µg/mL [3, 10]: 100%

C=CC[C@@H]1/C=C(\C)C[C@H](C)C[C@H](OC)[C@H]2O[C@@](O)(C(=O)C(=O)N3CCCC[C@H]3C(=O)O[C@H](/C(C)=C/[C@@H]3CC[C@@H](O)[C@H](OC)C3)[C@H](C)[C@@H](O)CC1=O)[C@H](C)C[C@@H]2OC [Tacrolimus]
activity at 2 µg/mL ([1]; 3D7, 72 h, P. falciparum, 72 h, parasite screen 2 μg/mL, replicate 1, read-out: Pf_72h_%Growth_Rep1): 56.9% | activity at 2 µg/mL ([1]; 3D7, 72 h, P. falciparum, 72 h, parasite screen 2 μg/mL, replicate 2, read-out: Pf_72h_%Growth_Rep2): 41.7% | activity at 2 µg/mL ([2]; 3D7, 120 h, P. falciparum, parasite screen 2 μg/mL, replicate 1, read-out: Pf_120h_%Growth_Rep1): 49.7% | activity at 2 µg/mL ([2]; 3D7, 120 h, P. falciparum, parasite screen 2 μg/mL, replicate 2, read-out: Pf_120h_%Growth_Rep2): 41% | percent parasite growth at 2 µg/mL ([3]; T. gondii, parasite screen 2 μg/mL, replicate 1, read-out: Tg_72h_%Growth_Rep1): 102% | percent parasite growth at 2 µg/mL ([3]; T. gondii, parasite screen 2 μg/mL, replicate 2, read-out: Tg_72h_%Growth_Rep2): 79.4%

C[C@@H](O)[C@H]1C(=O)N2C(C(=O)[O-])=C(SC3Cn4cnc[n+]4C3)[C@H](C)[C@H]12 (stereo partly drawn) [Biapenem]
activity at 2 µg/mL [1, 5]: 84.2% | activity at 2 µg/mL [1, 6]: 84.8% | activity at 2 µg/mL [2, 7]: 85.6% | activity at 2 µg/mL [2, 8]: 79.2% | percent parasite growth at 2 µg/mL [3, 9]: 116% | percent parasite growth at 2 µg/mL [3, 10]: 95.1%
